Here are results for 35 compounds from patent US20210101881A1 (Ancureall Pharmaceutical (Shanghai) Co., Ltd., priority 2018, published 2021).

Read-outs that look alike come from different tables or passages of the source. Some results are limits rather than exact numbers.

This assay has as its system MOLM13 cells. Nature of the assay: Growth inhibition of CDK9-positive cell line MOLM13 in vitro (CCK8/MTT assay). The assay is classed as cell-based, human. The conditions noted are these: Homo sapiens. (In general: Formazan colour is commonly taken as a measure of viable cells.)
Where [1] appears, read: MOLM-13, MOLM13 cells, cultured 3 to 6 days, CCK8, read-out: IC50 of the compound for inhibiting cell growth, MOLM13 cells.
The mark [2] stands for this setting: MOLM-13, read-out: IC50 of the compound for inhibiting cell growth, MOLM13 cells.

As a reminder, the IC50 is the concentration that inhibits the measured activity by half. On to `CN1CCCN(c2ccc(Nc3nccc(-n4cc(C(N)=O)c5ccccc54)n3)cc2)CC1` [Compound 69, 1-{2-[4-(4-methyl-[1,4]homopiperazin-1-yl)-phenylamino]-pyrimidin-4-yl}-1H-indole-3-carboxamide], for which, under setting [1], the IC50 lay within 1 to 10 nM.

Consider `COc1ccc(Nc2nccc(-n3cc(C(N)=O)c4ccccc43)n2)cc1OC` [Compound 5, 1-[2-(3,4-methoxy-phenylamino)-pyrimidin-4-yl]-1H-indole-3-carboxamide], for which the IC50 under setting [1] was greater than 1000 nM.

`Cc1cc(-n2cc(C(N)=O)c3ccccc32)nc(Nc2ccc(N3CCNCC3)cc2)n1` [Compound 38, 1-[6-methyl-2-(4-piperazin-1-yl-phenylamino)-pyrimidin-4-yl]-1H-indole-3-carboxamide]: the IC50 under setting [1] lay within 100 to 1000 nM.

For the compound `CN1CCN(CCN(C)c2ccc(Nc3nccc(-n4cc(C(N)=O)c5ccccc54)n3)cc2)CC1` [Compound 73, 1-[2-(4-{methyl-[2-(4-methyl-piperazin-1-yl)-ethyl]-amino}-phenylamino)-pyrimidin-4-yl]-1H-indole-3-carboxamide], under setting [2], the IC50 lay within 1 to 10 nM.

With `CC(C)(C)N1CCN(c2cccc(Nc3ncc(F)c(-n4cc(C(N)=O)c5ccccc54)n3)c2)CC1` [Compound 147, 1-{2-[3-(4-tert-butyl-piperazin-1-yl)-phenylamino]-5-fluoro-pyrimidin-4-yl}-1H-indole-3-carboxamide], the IC50 under setting [1] was less than 1 nM.

Consider `NC(=O)c1cn(-c2ccnc(Nc3ccc(CN4CCOCC4)cc3)n2)c2ccccc12` [Compound 14, 1-[2-(4-morpholin-4-methyl-phenylamino)-pyrimidin-4-yl]-1H-indole-3-carboxamide], for which, under setting [1], the IC50 lay in the range of 10 to 100 nM.

In the case of `CN(C)CCN(C)c1ccc(Nc2nccc(-n3cc(C(N)=O)c4ccccc43)n2)cc1Cl` [Compound 82, 1-(2-{3-chloro-4-[(2-dimethylamino-ethyl)-methyl-amino]-phenylamino}-pyrimidin-4-yl)-1H-indole-3-carboxamide], the half-inhibitory concentration (IC50) under setting [1] was 10 to 100 nM.

`NC(=O)c1cn(-c2nc(Nc3cccc(N4CCN(C5CCOC5)CC4)c3)ncc2F)c2ccccc12` (centres unmarked) [Compound 150, 1-(5-fluoro-2-{3-[4-(tetrahydro-furan-3-yl)-piperazin-1-yl]-phenylamino}-pyrimidin-4-yl)-1H-indole-3-carboxamide]: the IC50 under setting [1] lay in the range of 1 to 10 nM.

Consider `NC(=O)c1cn(-c2ccnc(Nc3ccc(NCCN4CCCC4)cc3)n2)c2ccccc12` [Compound 13, 1-{2-[4-(2-pyrrolidin-1-yl-ethylamino)-phenylamino]-pyrimidin-4-yl}-1H-indole-3-carboxamide], for which, under setting [1], the IC50 was in the range of 10 to 100 nM.

Regarding `COc1ccnc(Nc2nccc(-n3cc(C(N)=O)c4ccccc43)n2)c1` [Compound 131, 1-[2-(4-methoxy-pyridin-2-ylamino)-pyrimidin-4-yl]-1H-indole-3-carboxamide], the IC50 under setting [1] is greater than 1000 nM.

For the compound `NC(=O)c1cn(-c2ccnc(Nc3cccc(F)c3Cl)n2)c2ccccc12` [Compound 3, 1-[2-(2-chloro-3-fluoro-phenylamino)-pyrimidin-4-yl]-1H-indole-3-carboxamide], the IC50 under setting [1] was greater than 1000 nM.

In the case of `CNC(=O)c1cn(-c2ccnc(Nc3ccc(C4CCN(C)CC4)cc3)n2)c2ccccc12` [Compound 104, 1-{2-[4-(1-methyl-piperidin-4-yl)-phenylamino]-pyrimidin-4-yl}-1H-indole-3-carboxmethylamide], the IC50 under setting [1] lay within 10 to 100 nM.

Turning to `CNC(=O)N1CCN(c2cccc(Nc3ncc(F)c(-n4cc(C(N)=O)c5ccccc54)n3)c2)CC1` [Compound 172, 1-{5-fluoro-2-[3-(4-methylcarbamoyl-piperazin-1-yl)-phenylamino]-pyrimidin-4-yl}-1H-indole-3-carboxamide], the IC50 under setting [1] was 10 to 100 nM.

For `NC(=O)c1cn(-c2nc(Nc3cccc(N4CCC(N5CCOCC5)CC4)c3)ncc2F)c2ccccc12` [Compound 139, 1-{5-fluoro-2-[3-(4-morpholin-4-yl-piperidin-1-yl)-phenylamino]-pyrimidin-4-yl}-1H-indole-3-carboxamide], the half-inhibitory concentration (IC50) under setting [1] is 1 to 10 nM.

On to `CN1CCN(c2ccc(Nc3ncc(Cl)c(-n4cc(C(N)=O)c5ccccc54)n3)cc2F)CC1` [Compound 61, 1-{5-chloro-2-[3-fluoro-4-(4-methyl-piperazin-1-yl)-phenylamino]-pyrimidin-4-yl}-1H-indole-3-carboxamide], for which, under setting [1], the IC50 fell in the range of 1 to 10 nM.

Regarding `CN1CCN(c2ccc(Nc3ncc(Cl)c(-n4cc(C(N)=O)c5ccccc54)n3)cc2)CC1` [Compound 53, 1-{5-chloro-2-[4-(4-methyl-piperazin-1-yl)-phenylamino]-pyrimidin-4-yl}-1H-indole-3-carboxamide], the IC50 under setting [1] lay within 1 to 10 nM.

`COc1ccc2c(c1)c(C(N)=O)cn2-c1ccnc(Nc2ccc(N3CCNCC3)cc2)n1` [Compound 33, 5-methoxy-1-[2-(4-piperazin-1-yl-phenylamino)-pyrimidin-4-yl]-1H-indole-3-carboxamide]: the 50% inhibitory concentration (IC50) under setting [1] was in the range of 1 to 10 nM.

Regarding `NC(=O)c1cn(-c2nc(Nc3cccc(N4CCN(C(=O)C5CCOC5)CC4)c3)ncc2F)c2ccccc12` (centres unmarked) [Compound 170, 1-(5-fluoro-2-{3-[4-(tetrahydro-furan-3-carbonyl)-piperazin-1-yl]-phenylamino}-pyrimidin-4-yl)-1H-indole-3-carboxamide], the IC50 under setting [1] lay within 1 to 10 nM.

`CCC(=O)N1CCN(c2ccc(Nc3nccc(-n4cc(C(N)=O)c5ccccc54)n3)cc2C)CC1` [Compound 65, 1-{2-[3-methyl-4-(4-propionyl-piperazin-1-yl)-phenylamino]-pyrimidin-4-yl}-1H-indole-3-carboxamide]: the IC50 under setting [1] lay within 10 to 100 nM.

In the case of `NC(=O)c1cn(-c2ccnc(Nc3ccc(N4CCC(N5CCCCC5)CC4)cc3)n2)c2ccccc12` [Compound 24, 1-[2-(4-[1,4′]bipiperidin-1′-yl-phenylamino)-pyrimidin-4-yl]-1H-indole-3-carboxamide], the concentration for half-maximal inhibition (IC50) under setting [1] lay in the range of 10 to 100 nM.

Take `COCCN1CCN(c2ccc(Nc3nccc(-n4cc(C(N)=O)c5ccccc54)n3)cc2)CC1` [Compound 26, 1-(2-{4-[4-(2-methoxy-ethyl)-piperazin-1-yl]-phenylamino}-pyrimidin-4-yl)-1H-indole-3-carboxamide]: under setting [1], the IC50 lay within 10 to 100 nM.

With `NC(=O)c1cn(-c2ccnc(Nc3ccc(F)c([N+](=O)[O-])c3)n2)c2ccccc12` [Compound 6, 1-[2-(4-fluoro-3-nitro-phenylamino)-pyrimidin-4-yl]-1H-indole-3-carboxamide], under setting [1], the IC50 was greater than 1000 nM.

For the compound `CNC(=O)c1cn(-c2ccnc(Nc3ccc(N4CCNCC4)cc3)n2)c2ccccc12` [Compound 101, 1-[2-(4-piperazin-1-yl-phenylamino)-pyrimidin-4-yl]-1H-indole-3-carboxmethylamide], the IC50 under setting [1] lay in the range of 100 to 1000 nM.

Turning to `CN1CCN(c2cccc(Nc3nccc(-n4cc(C(N)=O)c5ccccc54)n3)c2)CC1` [Compound 113, 1-{2-[3-(4-methyl-piperazin-1-yl)-phenylamino]-pyrimidin-4-yl}-1H-indole-3-carboxamide], the IC50 under setting [1] was less than 1 nM.

Regarding `CN(C)CCN(C)c1ccc(Nc2nccc(-n3cc(C(N)=O)c4ccccc43)n2)cc1` [Compound 77, 1-(2-{4-[(2-dimethylamino-ethyl)-methyl-amino]-phenylamino}-pyrimidin-4-yl)-1H-indole-3-carboxamide], the IC50 under setting [1] lay within 10 to 100 nM.

For `CN(C)CCSc1ccc(Nc2nccc(-n3cc(C(N)=O)c4ccccc43)n2)cc1` [Compound 23, 1-{2-[4-(2-dimethylamino-ethylthio)-phenylamino]-pyrimidin-4-yl}-1H-indole-3-carboxamide], the IC50 under setting [1] was in the range of 10 to 100 nM.

With `Cc1cc(Nc2nccc(-n3cc(C(N)=O)c4ccccc43)n2)ccc1N1CCN(C(C)C)CC1` [Compound 51, 1-{2-[4-(4-isopropyl-piperazin-1-yl)-3-methyl-phenylamino]-pyrimidin-4-yl}-1H-indole-3-carboxamide], the IC50 under setting [1] lay within 1 to 10 nM.

As to `CN1CCN(CCOc2ccc(Nc3nccc(-n4cc(C(N)=O)c5ccccc54)n3)cc2)CC1` [Compound 18, 1-(2-{4-[2-(4-methyl-piperazin-1-yl)-ethoxy]-phenylamino}-pyrimidin-4-yl)-1H-indole-3-carboxamide], the IC50 under setting [2] lay within 10 to 100 nM.

Regarding `NC(=O)c1cn(-c2ccnc(Nc3cccc(N4CCNCC4)c3)n2)c2ccccc12` [Compound 111, 1-[2-(3-piperazin-1-yl-phenylamino)-pyrimidin-4-yl]-1H-indole-3-carboxamide], the IC50 under setting [1] was 1 to 10 nM.

`NC(=O)c1cn(-c2nc(Nc3ccc(N4CCNCC4)cc3)ncc2Cl)c2ccccc12` [Compound 34, 1-[5-chloro-2-(4-piperazin-1-yl-phenylamino)-pyrimidin-4-yl]-1H-indole-3-carboxamide]: under setting [1], the half-inhibitory concentration (IC50) was less than 1 nM.

Consider `CC(C)Oc1cc(Nc2nccc(-n3cc(C(N)=O)c4ccccc43)n2)ccc1N(C)CCN(C)C` [Compound 81, 1-(2-{4-[(2-dimethylamino-ethyl)-methyl-amino]-3-isopropoxy-phenylamino}-pyrimidin-4-yl)-1H-indole-3-carboxamide], for which the IC50 under setting [1] is 1 to 10 nM.

For the compound `CN1CCN(c2ccc(Nc3ncc(F)c(-n4cc(C(N)=O)c5ccccc54)n3)cc2)CC1` [Compound 52, 1-{5-fluoro-2-[4-(4-methyl-piperazin-1-yl)-phenylamino]-pyrimidin-4-yl}-1H-indole-3-carboxamide], the IC50 under setting [1] is 1 to 10 nM.

On to `CN1CCN(c2c(F)cc(Nc3nccc(-n4cc(C(N)=O)c5ccccc54)n3)cc2F)CC1` [Compound 47, 1-{2-[3,5-difluoro-4-(4-methyl-piperazin-1-yl)-phenylamino]-pyrimidin-4-yl}-1H-indole-3-carboxamide], for which the IC50 under setting [1] lay in the range of 10 to 100 nM.

In the case of `CN1CCN(c2ccc(Nc3nccc(-n4cc(C(N)=O)c5ccccc54)n3)cc2F)CC1` [Compound 46, 1-{2-[3-fluoro-4-(4-methyl-piperazin-1-yl)-phenylamino]-pyrimidin-4-yl}-1H-indole-3-carboxamide], the IC50 under setting [1] lay within 1 to 10 nM.

As to `NC(=O)c1cn(-c2nc(Nc3ccc(N4CCNCC4)cc3)ncc2F)c2ccccc12` [Compound 35, 1-[5-fluoro-2-(4-piperazin-1-yl-phenylamino)-pyrimidin-4-yl]-1H-indole-3-carboxamide], the IC50 under setting [1] was less than 1 nM.
